Data: the kinase profiling compilation of Christmann-Franck et al. (2016)

Key:
CAMK2D (human) = CAMK2D (human) (UniProt Q13557); assay: KINOMEscan competition binding; details: compound 10.0 µM
DCLK1 (human) = DCLK1 (human) (UniProt O15075); assay: KINOMEscan competition binding; details: compound 10.0 µM
GAK (human) = GAK (human) (UniProt O14976); assay: KINOMEscan competition binding; details: compound 10.0 µM
PLK1 (human) = PLK1 (human) (UniProt P53350); assay: KINOMEscan competition binding; details: compound 10.0 µM
RPS6KA2 KD2 (human) = RPS6KA2 KD2 (human) (UniProt Q15349); assay: KINOMEscan competition binding; details: compound 10.0 µM
STK33 (human) = STK33 (human) (UniProt Q9BYT3); assay: KINOMEscan competition binding; details: compound 10.0 µM
TNK1 (human) = TNK1 (human) (UniProt Q13470); assay: KINOMEscan competition binding; details: compound 10.0 µM
TTK (human) [1] = molecular target: TTK (human) (UniProt P33981); assay: KINOMEscan competition binding; details: for kinase still bound, per cent of control: compound 10.0 µM
DCLK2 (human) = DCLK2 (human) (UniProt Q8N568); assay: SelectScreen, TR FRET
TTK (human) [2] = molecular target: TTK (human) (UniProt P33981); assay: SelectScreen, TR FRET
ACVR2B (human) = ACVR2B (human) (UniProt Q13705); assay: KINOMEscan competition binding; details: compound 10.0 µM
BRAF (human) = BRAF (human) (UniProt P15056); assay: KINOMEscan competition binding; details: compound 10.0 µM
CDK16 (human) = CDK16 (human) (UniProt Q00536); assay: KINOMEscan competition binding; details: compound 10.0 µM
CDK3 (human) = CDK3 (human) (UniProt Q00526); assay: KINOMEscan competition binding; details: compound 10.0 µM
CDK5 (human) = CDK5 (human) (UniProt Q00535); assay: KINOMEscan competition binding; details: compound 10.0 µM
CDK7 (human) = CDK7 (human) (UniProt P50613); assay: KINOMEscan competition binding; details: compound 10.0 µM
DAPK1 (human) = DAPK1 (human) (UniProt P53355); assay: KINOMEscan competition binding; details: compound 10.0 µM
DAPK2 (human) = DAPK2 (human) (UniProt Q9UIK4); assay: KINOMEscan competition binding; details: compound 10.0 µM
DAPK3 (human) = DAPK3 (human) (UniProt O43293); assay: KINOMEscan competition binding; details: compound 10.0 µM
GSK3A (human) = GSK3A (human) (UniProt P49840); assay: KINOMEscan competition binding; details: compound 10.0 µM
HIPK1 (human) = HIPK1 (human) (UniProt Q86Z02); assay: KINOMEscan competition binding; details: compound 10.0 µM
MAPK12 (human) = MAPK12 (human) (UniProt P53778); assay: KINOMEscan competition binding; details: compound 10.0 µM
MAPK15 (human) = MAPK15 (human) (UniProt Q8TD08); assay: KINOMEscan competition binding; details: compound 10.0 µM
MYLK4 (human) = MYLK4 (human) (UniProt Q86YV6); assay: KINOMEscan competition binding; details: compound 10.0 µM
NLK (human) = NLK (human) (UniProt Q9UBE8); assay: KINOMEscan competition binding; details: compound 10.0 µM
PIM1 (human) [3] = molecular target: PIM1 (human) (UniProt P11309); assay: KINOMEscan competition binding; details: compound 10.0 µM
PIM2 (human) [4] = molecular target: PIM2 (human) (UniProt Q9P1W9); assay: KINOMEscan competition binding; details: compound 10.0 µM
PIM3 (human) = PIM3 (human) (UniProt Q86V86); assay: KINOMEscan competition binding; details: compound 10.0 µM
PLK4 (human) = PLK4 (human) (UniProt O00444); assay: KINOMEscan competition binding; details: compound 10.0 µM
STK17A (human) = STK17A (human) (UniProt Q9UEE5); assay: KINOMEscan competition binding; details: compound 10.0 µM
STK17B (human) = STK17B (human) (UniProt O94768); assay: KINOMEscan competition binding; details: compound 10.0 µM
TAOK1 (human) = TAOK1 (human) (UniProt Q7L7X3); assay: KINOMEscan competition binding; details: compound 10.0 µM
TAOK3 (human) = TAOK3 (human) (UniProt Q9H2K8); assay: KINOMEscan competition binding; details: compound 10.0 µM
TGFBR2 (human) = TGFBR2 (human) (UniProt P37173); assay: KINOMEscan competition binding; details: compound 10.0 µM
PIM1 (human) [5] = molecular target: PIM1 (human) (UniProt P11309); assay: SelectScreen, TR FRET
PIM2 (human) [6] = molecular target: PIM2 (human) (UniProt Q9P1W9); assay: SelectScreen, TR FRET
AAK1 (human) = AAK1 (human) (UniProt Q2M2I8); assay: KINOMEscan competition binding; details: compound 10.0 µM
BMPR2 (human) = BMPR2 (human) (UniProt Q13873); assay: KINOMEscan competition binding; details: compound 10.0 µM
CIT (human) = CIT (human) (UniProt O14578); assay: KINOMEscan competition binding; details: compound 10.0 µM
CLK2 (human) = CLK2 (human) (UniProt P49760); assay: KINOMEscan competition binding; details: compound 10.0 µM
CSNK2A1 (human) = CSNK2A1 (human) (UniProt P68400); assay: KINOMEscan competition binding; details: compound 10.0 µM
CSNK2A2 (human) = CSNK2A2 (human) (UniProt P19784); assay: KINOMEscan competition binding; details: compound 10.0 µM
EGFR (human) = EGFR (human) (UniProt P00533); assay: KINOMEscan competition binding; details: compound 10.0 µM
[7] = tested on: EGFR (human), P00533 [747-751 del / S ins]; assay: KINOMEscan competition binding; details: compound 10.0 µM
[8] = tested on: EGFR (human), P00533 [752-759 del]; assay: KINOMEscan competition binding; details: compound 10.0 µM
[9] = tested on: EGFR (human), P00533 [A750P; 747-749 del]; assay: KINOMEscan competition binding; details: compound 10.0 µM
[10] = tested on: EGFR (human), P00533 [G719C; 746-750 del]; assay: KINOMEscan competition binding; details: compound 10.0 µM
[11] = tested on: EGFR (human), P00533 [G719S]; assay: KINOMEscan competition binding; details: compound 10.0 µM
[12] = tested on: EGFR (human), P00533 [L858R]; assay: KINOMEscan competition binding; details: compound 10.0 µM
[13] = tested on: EGFR (human), P00533 [L861Q]; assay: KINOMEscan competition binding; details: compound 10.0 µM
[14] = tested on: EGFR (human), P00533 [P753S; 747-752 del]; assay: KINOMEscan competition binding; details: compound 10.0 µM
MYLK3 (human) = MYLK3 (human) (UniProt Q32MK0); assay: KINOMEscan competition binding; details: compound 10.0 µM
PIK3C2B (human) = PIK3C2B (human) (UniProt O00750); assay: KINOMEscan competition binding; details: compound 10.0 µM
PIK3CD (human) = PIK3CD (human) (UniProt O00329); assay: KINOMEscan competition binding; details: compound 10.0 µM
PIK3CG (human) = PIK3CG (human) (UniProt P48736); assay: KINOMEscan competition binding; details: compound 10.0 µM
RIPK2 (human) = RIPK2 (human) (UniProt O43353); assay: KINOMEscan competition binding; details: compound 10.0 µM
RPS6KA4 KD2 (human) = RPS6KA4 KD2 (human) (UniProt O75676); assay: KINOMEscan competition binding; details: compound 10.0 µM
RPS6KA6 KD2 (human) = RPS6KA6 KD2 (human) (UniProt Q9UK32); assay: KINOMEscan competition binding; details: compound 10.0 µM
TEK (human) = TEK (human) (UniProt Q02763); assay: KINOMEscan competition binding; details: compound 10.0 µM
TIE1 (human) = TIE1 (human) (UniProt P35590); assay: KINOMEscan competition binding; details: compound 10.0 µM
[15] = molecular target: TYK2 JH2 pseudokinase (human) (UniProt P29597); assay: KINOMEscan competition binding; details: compound 10.0 µM

Chain of TTK (human) (P33981 whole entry, looked up): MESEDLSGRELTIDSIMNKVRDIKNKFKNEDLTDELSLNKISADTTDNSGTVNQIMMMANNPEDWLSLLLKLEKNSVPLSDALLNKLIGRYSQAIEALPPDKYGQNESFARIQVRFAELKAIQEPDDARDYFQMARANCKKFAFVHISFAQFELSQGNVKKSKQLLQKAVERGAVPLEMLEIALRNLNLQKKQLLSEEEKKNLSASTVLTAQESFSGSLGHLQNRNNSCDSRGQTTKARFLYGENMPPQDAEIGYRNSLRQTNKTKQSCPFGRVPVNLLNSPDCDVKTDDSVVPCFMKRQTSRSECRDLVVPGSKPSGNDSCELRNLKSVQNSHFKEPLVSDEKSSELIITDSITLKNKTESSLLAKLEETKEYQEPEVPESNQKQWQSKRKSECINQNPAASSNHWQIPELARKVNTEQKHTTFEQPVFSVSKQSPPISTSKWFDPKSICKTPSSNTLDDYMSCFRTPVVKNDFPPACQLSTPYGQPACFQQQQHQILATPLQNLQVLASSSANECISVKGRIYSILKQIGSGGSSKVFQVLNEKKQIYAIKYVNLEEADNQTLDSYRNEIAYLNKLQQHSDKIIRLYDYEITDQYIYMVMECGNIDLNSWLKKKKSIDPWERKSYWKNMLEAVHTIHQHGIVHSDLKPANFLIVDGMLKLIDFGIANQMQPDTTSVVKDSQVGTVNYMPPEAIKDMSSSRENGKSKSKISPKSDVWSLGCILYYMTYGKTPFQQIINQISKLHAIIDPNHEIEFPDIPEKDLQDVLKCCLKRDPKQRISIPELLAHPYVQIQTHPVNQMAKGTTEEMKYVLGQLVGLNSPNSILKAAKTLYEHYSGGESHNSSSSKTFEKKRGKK
Chain of PIM2 (human) (Q9P1W9 whole entry, looked up): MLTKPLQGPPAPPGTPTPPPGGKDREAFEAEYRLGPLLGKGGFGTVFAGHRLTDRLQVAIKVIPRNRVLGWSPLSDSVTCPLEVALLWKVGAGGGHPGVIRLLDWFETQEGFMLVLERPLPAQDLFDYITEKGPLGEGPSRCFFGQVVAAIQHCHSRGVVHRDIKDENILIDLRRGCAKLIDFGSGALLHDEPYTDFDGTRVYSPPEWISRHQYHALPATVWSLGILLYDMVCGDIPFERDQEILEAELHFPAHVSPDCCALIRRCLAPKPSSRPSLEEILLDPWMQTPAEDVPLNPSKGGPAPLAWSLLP
Chain of PIM1 (human) (P11309 whole entry, looked up): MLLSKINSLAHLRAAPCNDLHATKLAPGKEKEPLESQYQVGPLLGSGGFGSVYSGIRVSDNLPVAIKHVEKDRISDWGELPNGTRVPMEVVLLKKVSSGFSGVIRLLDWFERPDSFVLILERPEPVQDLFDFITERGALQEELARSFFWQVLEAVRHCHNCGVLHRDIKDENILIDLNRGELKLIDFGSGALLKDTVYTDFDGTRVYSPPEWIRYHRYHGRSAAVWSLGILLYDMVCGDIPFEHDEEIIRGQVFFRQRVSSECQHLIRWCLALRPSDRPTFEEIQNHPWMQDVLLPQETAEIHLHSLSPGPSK
Chain of STK17A (human) (Q9UEE5 whole entry, looked up): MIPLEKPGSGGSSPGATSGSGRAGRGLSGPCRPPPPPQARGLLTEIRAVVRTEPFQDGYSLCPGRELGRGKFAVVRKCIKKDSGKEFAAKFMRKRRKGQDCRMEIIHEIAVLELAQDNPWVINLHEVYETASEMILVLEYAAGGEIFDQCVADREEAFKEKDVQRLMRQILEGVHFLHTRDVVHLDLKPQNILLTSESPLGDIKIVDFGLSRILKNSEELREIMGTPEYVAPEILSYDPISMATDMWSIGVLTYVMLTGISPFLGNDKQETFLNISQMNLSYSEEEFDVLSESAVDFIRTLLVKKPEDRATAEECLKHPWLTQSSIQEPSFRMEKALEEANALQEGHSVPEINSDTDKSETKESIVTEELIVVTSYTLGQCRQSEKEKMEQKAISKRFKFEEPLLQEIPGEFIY
Chain of DAPK2 (human) (Q9UIK4 whole entry, looked up): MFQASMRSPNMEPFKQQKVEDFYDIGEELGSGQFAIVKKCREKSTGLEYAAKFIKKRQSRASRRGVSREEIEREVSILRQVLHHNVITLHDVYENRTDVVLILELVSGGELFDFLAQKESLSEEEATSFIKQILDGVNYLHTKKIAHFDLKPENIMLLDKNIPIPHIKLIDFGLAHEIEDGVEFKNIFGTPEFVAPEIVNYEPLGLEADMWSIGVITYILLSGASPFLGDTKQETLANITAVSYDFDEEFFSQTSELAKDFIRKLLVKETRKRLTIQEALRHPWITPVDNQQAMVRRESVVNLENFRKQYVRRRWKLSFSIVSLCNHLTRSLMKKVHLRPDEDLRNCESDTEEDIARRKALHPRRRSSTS
Chain of GAK (human) (O14976 whole entry, looked up): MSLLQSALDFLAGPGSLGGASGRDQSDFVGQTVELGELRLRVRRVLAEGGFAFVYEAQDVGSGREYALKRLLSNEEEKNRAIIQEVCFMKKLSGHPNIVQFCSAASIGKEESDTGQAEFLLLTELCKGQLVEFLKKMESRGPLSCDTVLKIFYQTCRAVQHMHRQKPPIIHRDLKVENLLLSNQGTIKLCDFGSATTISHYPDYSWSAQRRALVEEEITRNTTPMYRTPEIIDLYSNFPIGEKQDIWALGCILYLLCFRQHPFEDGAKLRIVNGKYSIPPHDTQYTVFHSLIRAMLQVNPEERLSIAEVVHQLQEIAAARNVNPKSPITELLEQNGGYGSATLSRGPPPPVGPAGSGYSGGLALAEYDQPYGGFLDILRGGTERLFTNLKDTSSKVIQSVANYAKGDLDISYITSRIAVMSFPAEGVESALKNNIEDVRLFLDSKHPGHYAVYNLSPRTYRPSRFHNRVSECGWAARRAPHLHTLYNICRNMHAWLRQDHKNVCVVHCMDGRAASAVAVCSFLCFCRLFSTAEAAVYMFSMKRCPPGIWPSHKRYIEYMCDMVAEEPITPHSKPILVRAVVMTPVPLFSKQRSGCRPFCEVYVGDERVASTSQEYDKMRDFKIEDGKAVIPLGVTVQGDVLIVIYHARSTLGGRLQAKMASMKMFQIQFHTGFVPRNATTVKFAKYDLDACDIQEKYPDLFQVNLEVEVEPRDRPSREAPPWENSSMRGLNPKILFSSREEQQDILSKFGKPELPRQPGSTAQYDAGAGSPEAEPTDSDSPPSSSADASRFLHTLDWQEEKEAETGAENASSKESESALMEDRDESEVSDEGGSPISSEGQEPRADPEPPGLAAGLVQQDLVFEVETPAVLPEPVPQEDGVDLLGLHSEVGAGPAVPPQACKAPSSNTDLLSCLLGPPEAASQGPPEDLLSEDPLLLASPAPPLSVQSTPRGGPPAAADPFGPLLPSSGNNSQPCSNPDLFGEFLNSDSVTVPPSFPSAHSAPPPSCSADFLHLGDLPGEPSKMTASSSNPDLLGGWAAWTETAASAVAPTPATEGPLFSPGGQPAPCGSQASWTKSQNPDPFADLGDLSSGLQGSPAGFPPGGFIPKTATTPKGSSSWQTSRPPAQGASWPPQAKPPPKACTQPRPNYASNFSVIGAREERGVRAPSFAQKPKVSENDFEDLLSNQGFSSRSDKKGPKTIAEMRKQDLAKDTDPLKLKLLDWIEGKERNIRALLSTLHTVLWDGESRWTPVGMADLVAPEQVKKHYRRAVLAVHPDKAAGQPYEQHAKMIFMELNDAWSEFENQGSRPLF
Chain of STK17B (human) (O94768 whole entry, looked up): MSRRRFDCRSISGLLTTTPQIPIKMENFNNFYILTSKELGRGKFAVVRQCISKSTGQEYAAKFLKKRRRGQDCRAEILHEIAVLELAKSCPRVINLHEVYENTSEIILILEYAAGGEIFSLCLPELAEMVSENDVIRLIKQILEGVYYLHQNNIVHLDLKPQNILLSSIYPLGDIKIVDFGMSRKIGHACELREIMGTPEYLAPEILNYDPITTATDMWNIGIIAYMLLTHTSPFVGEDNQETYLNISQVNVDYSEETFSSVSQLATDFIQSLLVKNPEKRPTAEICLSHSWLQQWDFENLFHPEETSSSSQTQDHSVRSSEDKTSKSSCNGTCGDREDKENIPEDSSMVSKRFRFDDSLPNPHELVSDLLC
Chain of TAOK1 (human) (Q7L7X3 whole entry, looked up): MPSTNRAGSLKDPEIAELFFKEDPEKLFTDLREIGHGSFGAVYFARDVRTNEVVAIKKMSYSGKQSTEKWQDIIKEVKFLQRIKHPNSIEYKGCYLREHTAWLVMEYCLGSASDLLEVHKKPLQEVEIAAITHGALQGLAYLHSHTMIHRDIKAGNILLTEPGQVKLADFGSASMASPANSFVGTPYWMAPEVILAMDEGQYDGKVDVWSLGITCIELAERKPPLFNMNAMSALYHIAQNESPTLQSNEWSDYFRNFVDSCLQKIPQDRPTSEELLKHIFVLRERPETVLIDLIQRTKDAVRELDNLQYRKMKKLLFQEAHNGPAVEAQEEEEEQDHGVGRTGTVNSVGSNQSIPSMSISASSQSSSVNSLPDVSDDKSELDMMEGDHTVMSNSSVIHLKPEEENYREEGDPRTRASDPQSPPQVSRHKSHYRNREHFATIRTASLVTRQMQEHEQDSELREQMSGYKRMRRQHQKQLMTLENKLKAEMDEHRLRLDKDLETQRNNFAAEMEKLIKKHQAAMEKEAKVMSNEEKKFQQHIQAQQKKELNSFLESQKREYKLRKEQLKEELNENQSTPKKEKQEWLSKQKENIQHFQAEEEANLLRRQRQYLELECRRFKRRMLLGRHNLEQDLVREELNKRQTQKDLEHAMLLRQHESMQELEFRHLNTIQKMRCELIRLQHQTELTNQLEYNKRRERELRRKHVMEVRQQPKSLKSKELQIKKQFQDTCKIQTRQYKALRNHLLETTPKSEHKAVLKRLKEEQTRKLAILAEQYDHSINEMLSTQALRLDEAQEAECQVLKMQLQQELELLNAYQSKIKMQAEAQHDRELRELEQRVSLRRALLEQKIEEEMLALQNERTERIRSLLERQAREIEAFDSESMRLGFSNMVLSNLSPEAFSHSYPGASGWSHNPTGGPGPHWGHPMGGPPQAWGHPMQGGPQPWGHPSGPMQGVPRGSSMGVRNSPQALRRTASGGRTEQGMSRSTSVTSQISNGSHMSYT

CCOc1cc(N2CCC(O)CC2)ccc1Nc1ncc2c(n1)N(C1CCCC1)CCC(=O)N2CC
kinase still bound, per cent of control (CAMK2D (human)): 27%
kinase still bound, per cent of control (DCLK1 (human)): 27%
kinase still bound, per cent of control (GAK (human)): 8.2%
kinase still bound, per cent of control (PLK1 (human)): 1.2%
kinase still bound, per cent of control (RPS6KA2 KD2 (human)): 13%
kinase still bound, per cent of control (STK33 (human)): 22%
kinase still bound, per cent of control (TNK1 (human)): 33%
Kd (TTK (human) [1]): 106 nM
kinase still bound, per cent of control (TTK (human) [1]): 3.9%
IC50 (DCLK2 (human)): 556 nM
IC50 (TTK (human) [2]): 1010 nM

N=C1NC(=O)/C(=C/c2ccc(-c3ccc(S(N)(=O)=O)cc3)o2)S1
kinase still bound, per cent of control (ACVR2B (human)): 30%
kinase still bound, per cent of control (BRAF (human)): 24%
kinase still bound, per cent of control (CDK16 (human)): 1.2%
kinase still bound, per cent of control (CDK3 (human)): 17%
kinase still bound, per cent of control (CDK5 (human)): 9.6%
kinase still bound, per cent of control (CDK7 (human)): 23%
kinase still bound, per cent of control (DAPK1 (human)): 3.5%
kinase still bound, per cent of control (DAPK2 (human)): 16%
kinase still bound, per cent of control (DAPK3 (human)): 24%
kinase still bound, per cent of control (GSK3A (human)): 9.9%
kinase still bound, per cent of control (HIPK1 (human)): 0.65%
kinase still bound, per cent of control (MAPK12 (human)): 12%
kinase still bound, per cent of control (MAPK15 (human)): 5.4%
kinase still bound, per cent of control (MYLK4 (human)): 6.7%
kinase still bound, per cent of control (NLK (human)): 18%
kinase still bound, per cent of control (PIM1 (human) [3]): 3%
kinase still bound, per cent of control (PIM2 (human) [4]): 1.8%
kinase still bound, per cent of control (PIM3 (human)): 4.8%
kinase still bound, per cent of control (PLK4 (human)): 15%
kinase still bound, per cent of control (STK17A (human)): 1.1%
kinase still bound, per cent of control (STK17B (human)): 6%
kinase still bound, per cent of control (TAOK1 (human)): 2.4%
kinase still bound, per cent of control (TAOK3 (human)): 29%
kinase still bound, per cent of control (TGFBR2 (human)): 22%
kinase still bound, per cent of control (TTK (human) [1]): 24%
IC50 (PIM1 (human) [5]): 573 nM
IC50 (PIM2 (human) [6]): 501 nM

O=C1NC(=O)/C(=C/c2ccc(-c3ccc(F)cc3O)o2)S1
kinase still bound, per cent of control (AAK1 (human)): 35%
kinase still bound, per cent of control (ACVR2B (human)): 9.9%
kinase still bound, per cent of control (BMPR2 (human)): 12%
kinase still bound, per cent of control (CIT (human)): 0.2%
kinase still bound, per cent of control (CLK2 (human)): 27%
kinase still bound, per cent of control (CSNK2A1 (human)): 4.4%
kinase still bound, per cent of control (CSNK2A2 (human)): 4.2%
kinase still bound, per cent of control (DAPK1 (human)): 10%
kinase still bound, per cent of control (DAPK2 (human)): 12%
kinase still bound, per cent of control (DAPK3 (human)): 25%
kinase still bound, per cent of control (EGFR (human)): 29%
kinase still bound, per cent of control [7]: 1.9%
kinase still bound, per cent of control [8]: 9.8%
kinase still bound, per cent of control [9]: 5.8%
kinase still bound, per cent of control [10]: 15%
kinase still bound, per cent of control [11]: 19%
kinase still bound, per cent of control [12]: 20%
kinase still bound, per cent of control [13]: 28%
kinase still bound, per cent of control [14]: 14%
kinase still bound, per cent of control (GAK (human)): 9.3%
kinase still bound, per cent of control (HIPK1 (human)): 5%
kinase still bound, per cent of control (MAPK15 (human)): 3.6%
kinase still bound, per cent of control (MYLK3 (human)): 29%
kinase still bound, per cent of control (MYLK4 (human)): 17%
kinase still bound, per cent of control (PIK3C2B (human)): 19%
kinase still bound, per cent of control (PIK3CD (human)): 27%
kinase still bound, per cent of control (PIK3CG (human)): 4%
kinase still bound, per cent of control (PIM1 (human) [3]): 2.7%
kinase still bound, per cent of control (PIM2 (human) [4]): 2%
kinase still bound, per cent of control (PIM3 (human)): 4.8%
kinase still bound, per cent of control (RIPK2 (human)): 32%
kinase still bound, per cent of control (RPS6KA4 KD2 (human)): 22%
kinase still bound, per cent of control (RPS6KA6 KD2 (human)): 18%
kinase still bound, per cent of control (STK17A (human)): 1.5%
kinase still bound, per cent of control (STK17B (human)): 3.3%
kinase still bound, per cent of control (TAOK1 (human)): 8.4%
kinase still bound, per cent of control (TEK (human)): 2.1%
kinase still bound, per cent of control (TIE1 (human)): 25%
kinase still bound, per cent of control [15]: 33%
IC50 (PIM1 (human) [5]): 94 nM
IC50 (PIM2 (human) [6]): 158 nM
